According to patent US7915272B2 (priority 2006, dated 2011):
Structures can show the parent of a compound that is named as a salt.

Molecular target: α7-subtype of nicotinic receptors (Rattus norvegicus, UniProt Q05941)
Assay: biochemical
Assay type: binding

Sequence of α7-subtype of nicotinic receptors (Q05941 23-502): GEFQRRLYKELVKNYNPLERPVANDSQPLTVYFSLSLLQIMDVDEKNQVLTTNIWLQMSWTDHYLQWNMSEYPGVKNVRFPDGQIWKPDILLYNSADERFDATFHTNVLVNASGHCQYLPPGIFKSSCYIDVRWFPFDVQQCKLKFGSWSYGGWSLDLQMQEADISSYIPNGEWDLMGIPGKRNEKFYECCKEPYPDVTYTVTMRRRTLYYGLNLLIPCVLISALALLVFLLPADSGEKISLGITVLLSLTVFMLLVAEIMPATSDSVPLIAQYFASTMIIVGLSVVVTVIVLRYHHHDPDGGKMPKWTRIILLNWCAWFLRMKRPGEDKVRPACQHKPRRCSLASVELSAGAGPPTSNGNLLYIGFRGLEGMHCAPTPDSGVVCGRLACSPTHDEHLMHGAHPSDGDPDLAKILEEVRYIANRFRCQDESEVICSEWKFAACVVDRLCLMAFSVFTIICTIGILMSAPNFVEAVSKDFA

Structure (SMILES): O=C(Nc1cnc(N2CCN3CCC2CC3)nc1)c1ccccc1F [Compound 1, N-[2-(1,4-Diaza-bicyclo[3.2.2]non-4-yl)-pyrimidin-5-yl]-2-fluoro-benzamide hydrochloric acid salt]
- IC50: < 100 nM
